IC50 data for 29 molecules are collected here from patent publication US10934304B2, “Spirocyclic compounds” (Recurium IP Holdings, LLC, priority 2016, dated 2021).

By pIC50 is commonly meant the IC50 on a negative log10 scale, so that one unit is a factor of ten.

pIC50: −log10 of the molar value. Some results are limits rather than exact numbers.

For one assay, the target named is ERK2 (Homo sapiens (Human), UniProt P28482). The assay can be described thus: Active ERK1 and ERK2 Kinase Assay (Mobility Shift Assay). The assay is classed as biochemical. The following applies: activated ERK2, Mobility Shift Assay. On the procedure:
Activated ERK1 and ERK2 activity was determined in a Mobility Shift Assay (MSA) format as follows: Compound and kinase solution were prepared with assay buffer (20 mM HEPES, 0.01% Triton X-100, 2 mM DTT, pH7.5) and mixed and incubated in for 30 mins at rt. ERK1 & ERK2 were then activated by the addition of F1-Substrate, ATP and metal solution and incubated for 1 h at rt. After 1 h, the reaction was terminated by the addition of […] of Termination Buffer (QuickScout Screening Assist MSA; Carna Biosciences) to the well. The reaction mixture was applied to LabChip™ system (PerkinElmer), and the product and substrate peptide peaks were separated, analyzed and quantitated. The kinase reaction is evaluated by the product ratio calculated from peak heights of product (P) and substrate(S) peptides (P/(P+S)).

Another assay deals with A375 (melanoma) cells. As to the kind of experiment: Proliferation Assay (CellTiter-Glo). It is filed as cell-based. The following applies: 3 days incubation, CellTiter-Glo luminescence. The method, then:
A375 (melanoma), Colo-205 (colon cancer), Miapaca (pancreatic), HPAFII (pancreatic), sNF02.0 (neurofibromatosis type 1), sNF96.2 (neurofibromatosis type 1) and 8505 (Thyroid) cells were grown and maintained in RPMI-1640 medium containing 100 U/mL penicillin-streptomycin and 10% fetal bovine serum. Cells were in growth medium in 96-well opaque-walled clear bottom plates and incubated in the CO2 incubator overnight before treatment. Cells were treated with compounds diluted in DMSO and a 10 point 3-fold serial dilutions were done. Plates were placed in 37° C., 5% CO2 to incubate for 3 days. Before they were developed by adding 100 μL of CellTiter-Glo reagent (Promega) to the assay plate, plates were shaken briefly for 2 mins and allowed to incubate at room temperature for 10 mins. The bottom of the plates was pasted with white back seal and luminescence was recorded with Flexstation3 with setting of luminescence, integration time 500 ms.
Compounds of Formula (I), (II) and (III) are active in this assay as noted in Table 2.
On the technique in general: Cellular ATP, detected with luciferase, serves as a proxy for viable cell number.

Chain of ERK2 (P28482 whole entry): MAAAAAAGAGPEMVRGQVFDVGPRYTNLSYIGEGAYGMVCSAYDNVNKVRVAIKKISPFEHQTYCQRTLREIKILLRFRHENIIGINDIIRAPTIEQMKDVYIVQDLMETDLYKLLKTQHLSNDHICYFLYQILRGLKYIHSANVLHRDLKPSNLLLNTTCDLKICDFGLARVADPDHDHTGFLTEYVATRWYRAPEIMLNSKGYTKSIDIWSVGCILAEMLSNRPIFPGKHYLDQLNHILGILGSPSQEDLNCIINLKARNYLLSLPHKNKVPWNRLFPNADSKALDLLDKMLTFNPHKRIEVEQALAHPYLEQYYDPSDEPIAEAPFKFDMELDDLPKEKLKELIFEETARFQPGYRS

For the molecule `CN1CCC(c2n[nH]c3ccc(N4CC[C@]5(CCN(CC(=O)N6CC=C(c7ccc(-c8ncn(C)n8)cc7)CC6)C5)C4=O)cc23)CC1` [Example 4, (S)-7-(2-(4-(4-(1-methyl-1H-1,2,4-triazol-3-yl)phenyl)-3,6-dihydropyridin-1(2H)-yl)-2-oxoethyl)-2-(3-(1-methylpiperidin-4-yl)-1H-indazol-5-yl)-2,7-diazaspiro[4.4]nonan-1-one], the pIC50 at ERK2 was no more than 6.60; with A375 (melanoma) cells (Homo sapiens, A-375, 72 h), no more than 6.00.

Consider `CNC(=O)c1cc(-c2n[nH]c3ccc(N4CC[C@]5(CCN(CC(=O)N6CC=C(c7ccc(-c8ncn(C)n8)cc7)CC6)C5)C4=O)cc23)ccn1` [Example 5], for which the negative-log IC50 (pIC50) on ERK2 was no less than 7.30; with A375 (melanoma) cells (Homo sapiens, A-375, 72 h) it was no less than 6.30.

As for `CNC(=O)c1ccc(-c2n[nH]c3ccc(N4CC[C@]5(CCN(CC(=O)N6CC=C(c7ccc(-c8ncn(C)n8)cc7)CC6)C5)C4=O)cc23)cn1` [Example 6], the negative logarithm of the IC50 (pIC50) at ERK2 is no less than 7.30; with A375 (melanoma) cells (Homo sapiens, A-375, 72 h) it was no less than 6.30.

Turning to `Cn1cnc(-c2ccc(C3=CCN(C(=O)CN4CC[C@]5(CCN(c6ccc7[nH]nc(C8CCS(=O)(=O)CC8)c7c6)C5=O)C4)CC3)cc2)n1` [Example 7, (S)-7-(2-(4-(4-(1-Methyl-1H-1,2,4-triazol-3-yl)phenyl)-5,6-dihydropyridin-1(2H)-yl)-2-oxoethyl)-2-(3-(tetrahydro-2H-thiopyran 1,1-dioxide-4-yl)-1H-indazol-5-yl)-2,7-diazaspiro[4.4]nonan-1-one], the negative-log IC50 (pIC50) at ERK2 was no less than 7.30; in the assay on A375 (melanoma) cells (Homo sapiens, A-375, 72 h), no more than 6.00.

Turning to `COc1ncc(-c2n[nH]c3ccc(N4CC[C@]5(CCN(CC(=O)N6CC=C(c7ccc(-c8ncn(C)n8)cc7)CC6)C5)C4=O)cc23)cc1C(F)(F)F` [Example 8], the pIC50 on ERK2 is no less than 7.30; in the assay with A375 (melanoma) cells (Homo sapiens, A-375, 72 h) it was no more than 6.00.

Take `Cn1cnc(-c2ccc(C3=CCN(C(=O)CN4CC[C@]5(CCN(c6ccc7[nH]nc(-c8cnc(C#N)c(Cl)c8)c7c6)C5=O)C4)CC3)cc2)n1` [Example 9]: the negative logarithm of the IC50 (pIC50) is no less than 7.30 on ERK2 and no less than 6.30 in the assay on A375 (melanoma) cells (Homo sapiens, A-375, 72 h).

Consider `Cn1cnc(-c2ccc(C3=CCN(C(=O)CN4CC[C@]5(CCN(c6ccc7[nH]nc(-c8cnc(C#N)c(C(F)(F)F)c8)c7c6)C5=O)C4)CC3)cc2)n1` [Example 10], for which the pIC50 was no less than 7.30 on ERK2 and 6.00 to 6.30 with A375 (melanoma) cells (Homo sapiens, A-375, 72 h).

With `Cn1cnc(-c2ccc(C3=CCN(C(=O)CN4CC[C@]5(CCN(c6ccc7[nH]nc(N8CCCC8)c7c6)C5=O)C4)CC3)cc2)n1` [Example 11, (S)-7-(2-(4-(4-(1-Methyl-1H-1,2,4-triazol-3-yl)phenyl)-5,6-dihydropyridin-1(2H)-yl)-2-oxoethyl)-2-(3-(pyrrolidin-1-yl)-1H-indazol-5-yl)-2,7-diazaspiro[4.4]nonan-1-one], the negative-log IC50 (pIC50) is no less than 7.30 at ERK2 and no more than 6.00 in the assay on A375 (melanoma) cells (Homo sapiens, A-375, 72 h).

Consider `Cn1cnc(-c2ccc(C3=CCN(C(=O)CN4CC[C@]5(CCN(c6ccc7[nH]nc(C8CCN(CC(F)(F)F)CC8)c7c6)C5=O)C4)CC3)cc2)n1` [Example 12, (S)-7-(2-(4-(4-(1-Methyl-1H-1,2,4-triazol-3-yl)phenyl)-5,6-dihydropyridin-1(2H)-yl)-2-oxoethyl)-2-(3-(1-(2,2,2-trifluoroethyl)piperidin-4-yl)-1H-indazol-5-yl)-2,7-diazaspiro[4.4]nonan-1-one], for which the negative-log IC50 (pIC50) at ERK2 is no less than 7.30; in the assay on A375 (melanoma) cells (Homo sapiens, A-375, 72 h), 6.00 to 6.30.

With `Cn1cnc(-c2ccc(C3=CCN(C(=O)CN4CC[C@]5(CCN(c6ccc7[nH]nc(C8CCOC8)c7c6)C5=O)C4)CC3)cc2)n1` (stereo partly drawn) [Example 13, (5S)-7-(2-(4-(4-(1-Methyl-1H-1,2,4-triazol-3-yl)phenyl)-5,6-dihydropyridin-1(2H)-yl)-2-oxoethyl)-2-(3-(tetrahydrofuran-3-yl)-1H-indazol-5-yl)-2,7-diazaspiro[4.4]nonan-1-one], the negative logarithm of the IC50 (pIC50) on ERK2 was no less than 7.30; in the assay on A375 (melanoma) cells (Homo sapiens, A-375, 72 h), no less than 6.30.

`Cn1nc(-c2ccc(C3=CCN(C(=O)CN4CC[C@]5(CCN(c6ccc7[nH]nc(-c8ccc(C#N)c(Cl)c8)c7c6)C5=O)C4)CC3)cc2)oc1=O` [Example 14]: the pIC50 is no less than 7.30 on ERK2 and no less than 6.30 in the assay with A375 (melanoma) cells.

As to `Cn1nc(-c2ccc(C3=CCN(C(=O)CN4CC[C@]5(CCN(c6ccc7[nH]nc(-c8ccc(C#N)c(C(F)(F)F)c8)c7c6)C5=O)C4)CC3)cc2)oc1=O` [Example 15], the negative-log IC50 (pIC50) was no less than 7.30 on ERK2 and 6.00 to 6.30 with A375 (melanoma) cells.

On to `CNC(=O)c1cc(-c2n[nH]c3ccc(N4CC[C@]5(CCN(CC(=O)N6CC=C(c7ccc(-c8nn(C)c(=O)o8)cc7)CC6)C5)C4=O)cc23)ccc1F` [Example 16], for which the pIC50 was no less than 7.30 on ERK2 and no less than 6.30 in the assay on A375 (melanoma) cells.

With `Cn1cnc(-c2cnc(C3=CCN(C(=O)CN4CC[C@]5(CCN(c6ccc7[nH]nc(-c8ccc(F)cc8)c7c6)C5=O)C4)CC3)s2)n1` [Example 17], the negative logarithm of the IC50 (pIC50) at ERK2 was no less than 7.30; in the assay with A375 (melanoma) cells, no less than 6.30.

With `Cn1nc(-c2ccc(C3=CCN(C(=O)CN4CC[C@]5(CCN(c6ccc7[nH]nc(-c8ccc(F)cc8)c7c6)C5=O)C4)CC3)cc2)oc1=O` [Example 18], the pIC50 on ERK2 was no less than 7.30; with A375 (melanoma) cells it was no less than 6.30.

With `COc1ccc(-c2n[nH]c3ccc(N4CC[C@]5(CCN(CC(=O)N6CC=C(c7ccc(-c8nn(C)c(=O)o8)cc7)CC6)C5)C4=O)cc23)cn1` [Example 19], the negative logarithm of the IC50 (pIC50) was no less than 7.30 at ERK2 and no less than 6.30 with A375 (melanoma) cells.

Take `Cc1ccc(-c2n[nH]c3ccc(N4CC[C@]5(CCN(CC(=O)N6CC=C(c7ccc(-c8ncn(C)n8)cc7)CC6)C5)C4=O)nc23)cn1` [Example 20]: the pIC50 on ERK2 is no less than 7.30; in the assay on A375 (melanoma) cells it was no less than 6.30.

In the case of `COc1ccc(-c2n[nH]c3ccc(N4CC[C@]5(CCN(CC(=O)N6CC=C(c7ccc(-c8ncn(C)n8)cc7)CC6)C5)C4=O)nc23)cn1` [Example 21], the pIC50 at ERK2 is no less than 7.30; with A375 (melanoma) cells it was no less than 6.30.

As for `Cn1cnc(-c2ccc(C3=CCN(C(=O)CN4CC[C@]5(CCN(c6ccc7[nH]nc(C8CCOCC8)c7n6)C5=O)C4)CC3)cc2)n1` [Example 22, (S)-7-(2-(4-(4-(1-Methyl-1H-1,2,4-triazol-3-yl)phenyl)-5,6-dihydropyridin-1(2H)-yl)-2-oxoethyl)-2-(3-(tetrahydro-2H-pyran-4-yl)-1H-pyrazolo[4,3-b]pyridin-5-yl)-2,7-diazaspiro[4.4]nonan-1-one], the negative-log IC50 (pIC50) at ERK2 was no less than 7.30; in the assay on A375 (melanoma) cells (Homo sapiens, A-375, 72 h), no less than 6.30.

As for `Cn1nc(-c2ccc(C3=CCN(C(=O)CN4CCC5(CCN(c6ccc7[nH]nc(C8CCOCC8)c7n6)C5=O)C4)CC3)cc2)oc1=O` (stereo not shown) [Example 23], the pIC50 was no less than 7.30 at ERK2 and no less than 6.30 in the assay on A375 (melanoma) cells.

In the case of `Cc1nc2cc(-c3n[nH]c4ccc(N5CC[C@]6(CCN(CC(=O)N7CC=C(c8ccc(-c9ncn(C)n9)cc8)CC7)C6)C5=O)nc34)ccc2o1` [Example 24], the pIC50 at ERK2 is no less than 7.30; with A375 (melanoma) cells, no less than 6.30.

Consider `CC(C)Oc1ccc(-c2n[nH]c3ccc(N4CC[C@]5(CCN(CC(=O)N6CC=C(c7ncc(-c8ncn(C)n8)s7)CC6)C5)C4=O)nc23)cn1` [Example 25], for which the pIC50 on ERK2 is no less than 7.30; with A375 (melanoma) cells it was no less than 6.30.

On to `Cn1cnc(-c2ccc(C3=CCN(C(=O)CN4CC[C@]5(CCN(c6ccc7[nH]nc(C8=CCOCC8)c7n6)C5=O)C4)CC3)cc2)n1` [Example 26], for which the pIC50 on ERK2 is no less than 7.30; with A375 (melanoma) cells (Homo sapiens, A-375, 72 h), no less than 6.30.

For `Cn1cnc(-c2ccc(C3=CCN(C(=O)CN4CC[C@]5(CCN(c6ccc7[nH]nc(-c8ccc(C#N)cc8)c7n6)C5=O)C4)CC3)cc2)n1` [Example 27], the negative-log IC50 (pIC50) on ERK2 is no less than 7.30; with A375 (melanoma) cells (Homo sapiens, A-375, 72 h), no less than 6.30.

Turning to `Cn1cnc(-c2ccc(C3=CCN(C(=O)CN4CC[C@]5(CCN(c6ccc7[nH]nc(-c8ccc(F)cn8)c7c6)C5=O)C4)CC3)cc2)n1` [Example 28, (S)-2-(3-(5-Fluoropyridin-2-yl)-1H-indazol-5-yl)-7-(2-(4-(4-(1-methyl-1H-1,2,4-triazol-3-yl)phenyl)-5,6-dihydropyridin-1(2H)-yl)-2-oxoethyl)-2,7-diazaspiro[4.4]nonan-1-one], the pIC50 at ERK2 was no less than 7.30; in the assay on A375 (melanoma) cells (Homo sapiens, A-375, 72 h) it was no less than 6.30.

Take `Cn1cnc(-c2ccc(C3=CCN(C(=O)CN4CC[C@]5(CCN(c6ccc7[nH]nc(-c8ccc(C#N)cn8)c7c6)C5=O)C4)CC3)cc2)n1` [Example 29]: the pIC50 on ERK2 was no less than 7.30; in the assay with A375 (melanoma) cells (Homo sapiens, A-375, 72 h) it was no less than 6.30.

With `CC(C)n1cc(-c2n[nH]c3ccc(N4CC[C@]5(CCN(CC(=O)N6CC=C(c7ccc(-c8nn(C)c(=O)o8)cc7)CC6)C5)C4=O)cc23)cn1` [Example 31], the pIC50 was no less than 7.30 on ERK2 and no less than 6.30 with A375 (melanoma) cells (Homo sapiens, A-375, 72 h).

In the case of `Cn1nc(-c2ccc(C3=CCN(C(=O)CN4CC[C@]5(CCN(c6ccc7[nH]nc(C8=CCOCC8)c7c6)C5=O)C4)CC3)cc2)oc1=O` [Example 32], the pIC50 is no less than 7.30 on ERK2 and no less than 6.30 in the assay on A375 (melanoma) cells (Homo sapiens, A-375, 72 h).

As to `Cc1ncc(-c2n[nH]c3ccc(N4CC[C@]5(CCN(CC(=O)N6CC=C(c7ccc(-c8nn(C)c(=O)o8)cc7)CC6)C5)C4=O)cc23)s1` [Example 33], the negative logarithm of the IC50 (pIC50) on ERK2 was no less than 7.30; in the assay with A375 (melanoma) cells (Homo sapiens, A-375, 72 h), no less than 6.30.
